Measurements reported in publication PMC9387934, “Randomized single oral dose phase 1 study of safety, tolerability, and pharmacokinetics of Iminosugar UV-4 Hydrochloride (UV-4B) in healthy subjects” (PLoS Neglected Tropical Diseases, 2022).
Counter-ions that a name gives are not always drawn.

Experiment: Phase 1a single ascending dose study: UV-4 in pooled urine, urinary recovery and renal clearance
Type: in vivo, human
Conditions: for CL renal: human, po; for Cumulative Amount Ae(0-last): corresponds to Ae(0-48); for Cumulative Percent fe(0-last): corresponds to fe(0-48)
Procedure: Serial blood samples were collected at pre-dose (0 hour) and 0.5, 1, 1.5, 2, 2.5, 3, 4, 6, 9, 12, 18, 24, 36, and 48 hours post-dose for assessment of UV-4 concentrations in plasma. Pooled urine samples were collected at pre-dose (-12 to 0 hour) and from 0 to 6, 6 to 12, 12 to 24, and 24 to 48 hours post-dose for assessment of UV-4 concentrations in urine. Plasma and urine concentrations of UV-4 were determined by means of validated, sensitive, and specific high-performance liquid chromatography/tandem mass spectrometric (LC-MS/MS) assays. UV-4 plasma and urine concentrations and PK parameters were listed and summarized by dose, as appropriate. Only the 48 subjects who received active investigational product were included in the PK analysis population.
8.2.3 Specimen Preparation, Handling, and Shipping
8.2.3.1 Instructions for Specimen Preparation, Handling, and Storage
The collected PK blood samples (2 mL) will be placed on ice after blood draw, and within 1 hour centrifuged at room temperature at approximately 3000 revolutions per minute for 15 minutes. Plasma will then be harvested and split into 4 aliquots of approximately 250 μ L and stored frozen at -20°C until shipped.
Urine samples (approximately 10 mL) for determination of UV-4 concentrations in urine will be taken from the total volume provided during each collection period. The total volume of each urine collection will be recorded along with the start/stop time for each urine collection interval.
Analysis of plasma and urine for UV-4 will be performed by the qualified bioanalytical laboratory, Quintiles Bioservices, Inc., Ithaca, New York 14950. Instructions for the proper preparation, handling, storage and shipping of specimens will be provided separately in a study-specific laboratory manual (i.e., Biopacket).
8.2.3.2 Specimen Shipment […]
The following single-dose urine PK parameters will be estimated from the UV-4 urine concentration-time data collected, as appropriate:
Ae Amount of UV-4 excreted in urine unchanged, calculated for each collection interval and cumulatively across intervals fe Fraction of UV-4 excreted in urine unchanged, calculated for each collection interval and cumulatively across intervals […]
Additional UV-4 PK parameters may be calculated at the discretion of the […]
Plasma concentrations and plasma and urine PK parameters will be summarized by treatment using descriptive statistics, as appropriate. Figures for the arithmetic mean (and SD) concentration-time data will be presented for all doses on both a linear and semi-logarithmic scale. Individual concentration-time data will be graphically presented on linear and semi-logarithmic scales. Scatter plots of individual and geometric mean PK parameters versus dose will be presented. Additional graphical presentations of PK data may be added at the discretion of the PK analyst.
Dose proportionality of Cmax, AUC(0-last), and AUC(0-inf) will be assessed graphically and statistically using the power model approach with the logarithm of PK parameters AUC(0-inf) and Cmax as the dependent variables and the logarithm of the dose as the independent variable: ([AUC(0-inf), AUC(0-last), or Cmax]=α *doseβ).
11.4.7 Deviation from Original Analysis Plan
Deviations from the formal statistical analysis plan will be noted in the final Clinical Study

[1] = urine, Cohort 1, 3 mg single oral dose, Ar Mean
[2] = urine, Cohort 1, 3 mg single oral dose, Median
[3] = urine, Cohort 2, 10 mg single oral dose, Ar Mean
[4] = urine, Cohort 2, 10 mg single oral dose, Median
[5] = urine, Cohort 3, 30 mg single oral dose, Ar Mean
[6] = urine, Cohort 3, 30 mg single oral dose, Median
[7] = urine, Cohort 4, 90 mg single oral dose, Ar Mean
[8] = urine, Cohort 4, 90 mg single oral dose, Median

COCCCCCCCCCN1C[C@H](O)[C@@H](O)[C@H](O)[C@H]1CO [UV-4B, N-(9’-methoxynonyl)-1-deoxynojirimycin hydrochloride]
fe(0-last) (3 mg single oral dose, Ar Mean): 39.8%
CL renal (both sexes, urine and plasma, 3 mg, 3 mg single oral dose, Ar Mean): 242 mL/min
CL renal (both sexes, urine and plasma, 3 mg, 3 mg single oral dose, Geo Mean): 238 mL/min
CL renal (both sexes, urine and plasma, 1000 mg, 1000 mg single oral dose, Ar Mean): 198 mL/min
CL renal (both sexes, urine and plasma, 1000 mg, 1000 mg single oral dose, Geo Mean): 195 mL/min
CL renal (both sexes, urine, 10 mg, 10 mg single oral dose, Geo Mean): 190 mL/min
CL renal (both sexes, urine, 30 mg, 30 mg single oral dose, Ar Mean): 210 mL/min
CL renal (both sexes, urine, 30 mg, 30 mg single oral dose, Geo Mean): 208 mL/min
CL renal (both sexes, urine, 90 mg, 90 mg single oral dose, Ar Mean): 228 mL/min
CL renal (both sexes, urine, 90 mg, 90 mg single oral dose, Geo Mean): 227 mL/min
CL renal (both sexes, urine, 180 mg, 180 mg single oral dose, Ar Mean): 233 mL/min
CL renal (both sexes, urine, 180 mg, 180 mg single oral dose, Geo Mean): 232 mL/min
CL renal (both sexes, urine, 360 mg, 360 mg single oral dose, Ar Mean): 235 mL/min
CL renal (both sexes, urine, 360 mg, 360 mg single oral dose, Geo Mean): 228 mL/min
CL renal (both sexes, urine, 720 mg, 720 mg single oral dose, Ar Mean): 185 mL/min
CL renal (both sexes, urine, 720 mg, 720 mg single oral dose, Geo Mean): 182 mL/min
CL renal (urine, 10 mg, 10 mg single oral dose, Ar Mean): 195 mL/min
By-Interval Amount Ae(0-6) [1]: 0.607 mg
By-Interval Amount Ae(6-12) [1]: 0.215 mg
By-Interval Amount Ae(12-24) [1]: 0.202 mg
By-Interval Amount Ae(24-48) [1]: 0.170 mg
Cumulative Amount Ae(0-12) [1]: 0.822 mg
Cumulative Amount Ae(0-24) [1]: 1.02 mg
Cumulative Amount Ae(0-last) [1]: 1.19 mg
By-Interval Amount Ae(0-6) [2]: 0.624 mg
By-Interval Amount Ae(6-12) [2]: 0.216 mg
By-Interval Amount Ae(12-24) [2]: 0.230 mg
By-Interval Amount Ae(24-48) [2]: 0.173 mg
By-Interval Percent fe(0-6) [2]: 20.8%
By-Interval Percent fe(6-12) [2]: 7.19%
By-Interval Percent fe(12-24) [2]: 7.65%
By-Interval Percent fe(24-48) [2]: 5.75%
Cumulative Amount Ae(0-12) [2]: 0.892 mg
Cumulative Amount Ae(0-24) [2]: 1.08 mg
Cumulative Percent fe(0-12) [2]: 29.7%
Cumulative Percent fe(0-24) [2]: 36.0%
Cumulative Amount Ae(0-last) [2]: 1.23 mg
Cumulative Percent fe(0-last) [2]: 40.9%
By-Interval Amount Ae(0-6) [3]: 2.67 mg
By-Interval Amount Ae(6-12) [3]: 0.859 mg
By-Interval Amount Ae(12-24) [3]: 0.608 mg
By-Interval Amount Ae(24-48) [3]: 0.503 mg
By-Interval Percent fe(0-6) [3]: 26.7%
By-Interval Percent fe(6-12) [3]: 8.59%
By-Interval Percent fe(12-24) [3]: 6.08%
By-Interval Percent fe(24-48) [3]: 5.03%
Cumulative Amount Ae(0-12) [3]: 3.53 mg
Cumulative Amount Ae(0-24) [3]: 4.13 mg
Cumulative Percent fe(0-12) [3]: 35.3%
Cumulative Percent fe(0-24) [3]: 41.3%
Cumulative Amount Ae(0-last) [3]: 4.64 mg
Cumulative Percent fe(0-last) [3]: 46.4%
By-Interval Amount Ae(0-6) [4]: 2.77 mg
By-Interval Amount Ae(6-12) [4]: 0.883 mg
By-Interval Amount Ae(12-24) [4]: 0.635 mg
By-Interval Amount Ae(24-48) [4]: 0.503 mg
By-Interval Percent fe(0-6) [4]: 27.7%
By-Interval Percent fe(6-12) [4]: 8.83%
By-Interval Percent fe(12-24) [4]: 6.35%
By-Interval Percent fe(24-48) [4]: 5.03%
Cumulative Amount Ae(0-12) [4]: 3.71 mg
Cumulative Amount Ae(0-24) [4]: 4.34 mg
Cumulative Percent fe(0-12) [4]: 37.1%
Cumulative Percent fe(0-24) [4]: 43.4%
Cumulative Amount Ae(0-last) [4]: 4.82 mg
Cumulative Percent fe(0-last) [4]: 48.2%
By-Interval Amount Ae(0-6) [5]: 10.6 mg
By-Interval Amount Ae(6-12) [5]: 2.45 mg
By-Interval Amount Ae(12-24) [5]: 1.61 mg
By-Interval Amount Ae(24-48) [5]: 0.887 mg
By-Interval Percent fe(0-6) [5]: 35.3%
By-Interval Percent fe(6-12) [5]: 8.16%
By-Interval Percent fe(12-24) [5]: 5.36%
By-Interval Percent fe(24-48) [5]: 2.96%
Cumulative Amount Ae(0-12) [5]: 13.0 mg
Cumulative Amount Ae(0-24) [5]: 14.6 mg
Cumulative Percent fe(0-12) [5]: 43.4%
Cumulative Percent fe(0-24) [5]: 48.8%
Cumulative Amount Ae(0-last) [5]: 15.5 mg
Cumulative Percent fe(0-last) [5]: 51.7%
By-Interval Amount Ae(0-6) [6]: 10.5 mg
By-Interval Amount Ae(6-12) [6]: 2.47 mg
By-Interval Amount Ae(12-24) [6]: 1.55 mg
By-Interval Amount Ae(24-48) [6]: 0.96 mg
By-Interval Percent fe(0-6) [6]: 34.9%
By-Interval Percent fe(6-12) [6]: 8.24%
By-Interval Percent fe(12-24) [6]: 5.14%
By-Interval Percent fe(24-48) [6]: 3.20%
Cumulative Amount Ae(0-12) [6]: 12.9 mg
Cumulative Amount Ae(0-24) [6]: 14.6 mg
Cumulative Percent fe(0-12) [6]: 43.0%
Cumulative Percent fe(0-24) [6]: 48.7%
Cumulative Amount Ae(0-last) [6]: 15.5 mg
Cumulative Percent fe(0-last) [6]: 51.7%
By-Interval Amount Ae(0-6) [7]: 38.1 mg
By-Interval Amount Ae(6-12) [7]: 6.05 mg
By-Interval Amount Ae(12-24) [7]: 3.89 mg
By-Interval Amount Ae(24-48) [7]: 1.61 mg
By-Interval Percent fe(0-6) [7]: 42.2%
By-Interval Percent fe(6-12) [7]: 6.72%
By-Interval Percent fe(12-24) [7]: 4.32%
By-Interval Percent fe(24-48) [7]: 1.79%
Cumulative Amount Ae(0-12) [7]: 44.1 mg
Cumulative Amount Ae(0-24) [7]: 48.0 mg
Cumulative Percent fe(0-12) [7]: 49.0%
Cumulative Percent fe(0-24) [7]: 53.3%
Cumulative Amount Ae(0-last) [7]: 49.6 mg
Cumulative Percent fe(0-last) [7]: 55.1%
By-Interval Amount Ae(0-6) [8]: 39.3 mg
By-Interval Amount Ae(6-12) [8]: 6.36 mg
